{
  "source": "ChEMBL document CHEMBL4765464",
  "about": "“Discovery of BMS-986144, a Third-Generation, Pan-Genotype NS3/4A Protease Inhibitor for the Treatment of Hepatitis C Virus Infection” (J Med Chem, 2020)",
  "key": {"[1]": {"assay": "Oral bioavailability in dog at 3 mg/kg", "assay_type": "ADME, organism-based, Canis lupus familiaris", "details": "in vivo"}, "[2]": {"assay": "Half-life in dog at 3 mg/kg, po or 1 mg/kg, iv", "assay_type": "ADME, organism-based, Canis lupus familiaris", "details": "in vivo"}, "[3]": {"assay": "Clearance in rat at 1 mg/kg, iv", "assay_type": "ADME, organism-based", "details": "in vivo"}, "[4]": {"target": "T1, Cytochrome P450 3A4 (Homo sapiens, UniProt P08684)", "T1 sequence (P08684 whole entry)": "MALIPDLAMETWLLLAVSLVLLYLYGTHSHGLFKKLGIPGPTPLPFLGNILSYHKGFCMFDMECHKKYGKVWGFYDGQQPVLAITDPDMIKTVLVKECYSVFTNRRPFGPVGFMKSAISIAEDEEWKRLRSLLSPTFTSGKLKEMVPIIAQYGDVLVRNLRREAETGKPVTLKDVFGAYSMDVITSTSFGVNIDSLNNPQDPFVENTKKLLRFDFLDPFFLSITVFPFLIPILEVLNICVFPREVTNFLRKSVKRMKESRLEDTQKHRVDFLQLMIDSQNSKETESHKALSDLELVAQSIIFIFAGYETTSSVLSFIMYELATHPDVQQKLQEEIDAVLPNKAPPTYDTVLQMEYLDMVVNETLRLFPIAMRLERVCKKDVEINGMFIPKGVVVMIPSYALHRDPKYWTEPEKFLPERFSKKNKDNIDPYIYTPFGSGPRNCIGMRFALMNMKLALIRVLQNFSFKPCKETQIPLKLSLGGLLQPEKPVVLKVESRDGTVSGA", "assay": "Inhibition of human CYP3A4 in human pooled liver microsomes in presence of testosterone as substrate preincubated for 0 mins in presence of NADPH followed by addition of substrate by LC-MS/MS analysis", "assay_type": "ADME"}, "[5]": {"assay": "Selectivity index, ratio of IC50 for inhibition of HCV 4a NS3/4A protease to IC50 for inhibition of HCV 4a NS3/4A protease preincubated for 45 mins in presence of compound"}, "[6]": {"assay": "Half-life in cynomolgus monkey at 3 mg/kg, po or 1 mg/kg, iv", "assay_type": "ADME, organism-based, Macaca fascicularis", "details": "in vivo"}, "[7]": {"assay": "Inhibition of HCV 4a NS3/4A protease preincubated for 45 mins in presence of compound", "set-up": "species or system Hepatitis C virus subtype 4a"}, "[8]": {"target": "T1, Cytochrome P450 3A4", "assay": "Inhibition of human CYP3A4 in human pooled liver microsomes in presence of midazolam as substrate preincubated for 30 mins in presence of NADPH followed by addition of substrate by LC-MS/MS analysis", "assay_type": "ADME"}, "[9]": {"assay": "Selectivity index, ratio of IC50 for inhibition of HCV 3a NS3/4A protease to IC50 for inhibition of HCV 3a NS3/4A protease preincubated for 45 mins in presence of compound"}, "[10]": {"assay": "Cmax in rat at 5 mg/kg, po", "assay_type": "ADME, organism-based", "set-up": "route oral, dose 5 mg/kg", "details": "in vivo"}, "[11]": {"assay": "Oral bioavailability in cynomolgus monkey at 3 mg/kg", "assay_type": "ADME, organism-based, Macaca fascicularis", "details": "in vivo"}, "[12]": {"assay": "Drug concentration in rat plasma at 5 mg/kg, po measured upto 24 hrs", "assay_type": "ADME, organism-based", "details": "read-out: Ct"}, "[13]": {"assay": "Metabolic stability in human liver microsomes assessed as half-life incubated for 5 to 45 mins in presence of NADPH by LC-MS analysis", "assay_type": "ADME, Microsome", "details": "time 5-45 min"}, "[14]": {"assay": "Inhibition of HCV 1a NS3/4A protease preincubated for 45 mins in presence of compound", "set-up": "species or system Hepatitis C virus subtype 1a"}},
  "data": [
    {"smiles": "CC[C@@H]1C[C@H](C)CC/C=C\\[C@@H]2C[C@@]2(C(=O)NS(=O)(=O)C2(C)CC2)NC(=O)[C@@H]2C[C@@H](Oc3nccc4cc(OC)c(F)cc34)CN2C(=O)[C@H]1NC(=O)OC(C)(C)C(F)(F)F", "values": [
      {"measurement": "bioavailability", "setting": "[1]", "result": 87, "unit": "%"},
      {"measurement": "half-life", "setting": "[2]", "result": 8.2, "unit": "h"},
      {"measurement": "clearance", "setting": "[3]", "result": 0.3, "unit": "mL/min/kg"},
      {"measurement": "IC50", "setting": "[4]", "result": "> 40000", "unit": "nM"},
      {"measurement": "Selectivity Index", "setting": "[5]", "result": 9},
      {"measurement": "half-life", "setting": "[6]", "result": 3, "unit": "h"},
      {"measurement": "IC50", "setting": "[7]", "result": 0.1, "unit": "nM"},
      {"measurement": "IC50", "setting": "[8]", "result": 2850, "unit": "nM"},
      {"measurement": "Selectivity Index", "setting": "[9]", "result": 1},
      {"measurement": "Cmax", "setting": "[10]", "result": 12.1, "unit": "µM"},
      {"measurement": "bioavailability", "setting": "[11]", "result": 14, "unit": "%"},
      {"measurement": "concentration at 24 h", "setting": "[12]", "result": 3.85, "unit": "µM"},
      {"measurement": "half-life", "setting": "[13]", "result": 0.467, "unit": "h"},
      {"measurement": "IC50", "setting": "[14]", "result": 0.2, "unit": "nM"}
    ]}
  ]
}
